{"source": "ChEMBL document CHEMBL1201862", "about": "“PubChem BioAssay data set” (2004)", "assay_in_all_cases": "NCI anticancer screen, dose series, 48 h", "key": {"[1]": {"system": "SK-OV-3"}, "[2]": {"system": "TK-10"}, "[3]": {"system": "UACC-257"}, "[4]": {"system": "MDA-MB-231"}, "[5]": {"system": "PC-3"}, "[6]": {"system": "RPMI-8226"}, "[7]": {"system": "NCI-H23"}, "[8]": {"system": "UACC-62"}, "[9]": {"system": "SR"}, "[10]": {"system": "LOX IMVI"}, "[11]": {"system": "HOP-92"}, "[12]": {"system": "SN12C"}, "[13]": {"system": "COLO 205"}, "[14]": {"system": "SF-539"}, "[15]": {"system": "SK-MEL-2"}, "[16]": {"system": "MDA-N"}, "[17]": {"system": "DU-145"}, "[18]": {"system": "OVCAR-3"}, "[19]": {"system": "SF-268"}, "[20]": {"system": "NCI-H460"}}, "note": "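96-well plates; 48 h exposure; 5 concentrations. Endpoints by linear interpolation between flanking doses. Not reached: highest tested concentration assigned. GI50 marks 50% less growth.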 The source made the active and inactive calls. No stated cut-off is given here; in the data, active = GI50 up to about 1.1 µM and inactive = higher.", "data": [{"smiles": "O=C(NCC(O)COc1ccccc1)c1ccccc1O", "note": "(stereo not given)", "values": [{"measurement": "GI50", "setting": "[1]", "result": "> 100 µM (inactive)"}, {"measurement": "GI50", "setting": "[2]", "result": "> 100 µM (inactive)"}, {"measurement": "GI50", "setting": "[3]", "result": "> 100 µM (inactive)"}, {"measurement": "GI50", "setting": "[4]", "result": "> 100 µM (inactive)"}, {"measurement": "GI50", "setting": "[5]", "result": "66.1 µM (inactive)"}, {"measurement": "GI50", "setting": "[6]", "result": "> 100 µM (inactive)"}, {"measurement": "GI50", "setting": "[7]", "result": "> 100 µM (inactive)"}, {"measurement": "GI50", "setting": "[8]", "result": "55 µM (inactive)"}, {"measurement": "GI50", "setting": "[9]", "result": "87.7 µM (inactive)"}, {"measurement": "GI50", "setting": "[10]", "result": "> 100 µM (inactive)"}, {"measurement": "GI50", "setting": "[11]", "result": "86.1 µM (inactive)"}, {"measurement": "GI50", "setting": "[12]", "result": "> 100 µM (inactive)"}, {"measurement": "GI50", "setting": "[13]", "result": "> 100 µM (inactive)"}, {"measurement": "GI50", "setting": "[14]", "result": "> 100 µM (inactive)"}, {"measurement": "GI50", "setting": "[15]", "result": "> 100 µM (inactive)"}, {"measurement": "GI50", "setting": "[16]", "result": "> 100 µM (inactive)"}, {"measurement": "GI50", "setting": "[17]", "result": "> 100 µM (inactive)"}, {"measurement": "GI50", "setting": "[18]", "result": "> 100 µM (inactive)"}]}, {"smiles": "c1ccc(/C(=N/Nc2cnccn2)c2ncccn2)cc1", "values": [{"measurement": "GI50", "setting": "[1]", "result": "57.7 µM (inactive)"}, {"measurement": "GI50", "setting": "[3]", "result": "> 100 µM (inactive)"}, {"measurement": "GI50", "setting": "[4]", "result": "68.2 µM (inactive)"}, {"measurement": "GI50", "setting": "[5]", "result": "> 100 µM (inactive)"}, {"measurement": "GI50", "setting": "[6]", "result": "> 100 µM (inactive)"}, {"measurement": "GI50", "setting": "[7]", "result": "> 100 µM (inactive)"}, {"measurement": "GI50", "setting": "[19]", "result": "22.5 µM (inactive)"}, {"measurement": "GI50", "setting": "[20]", "result": "> 100 µM (inactive)"}, {"measurement": "GI50", "setting": "[8]", "result": "88.3 µM (inactive)"}, {"measurement": "GI50", "setting": "[9]", "result": "12.9 µM (inactive)"}, {"measurement": "GI50", "setting": "[11]", "result": "35.7 µM (inactive)"}, {"measurement": "GI50", "setting": "[12]", "result": "> 100 µM (inactive)"}, {"measurement": "GI50", "setting": "[13]", "result": "32.1 µM (inactive)"}, {"measurement": "GI50", "setting": "[14]", "result": "> 100 µM (inactive)"}, {"measurement": "GI50", "setting": "[15]", "result": "> 100 µM (inactive)"}, {"measurement": "GI50", "setting": "[16]", "result": "> 100 µM (inactive)"}, {"measurement": "GI50", "setting": "[17]", "result": "90.2 µM (inactive)"}, {"measurement": "GI50", "setting": "[18]", "result": "30.8 µM (inactive)"}]}, {"smiles": "c1ccc(C2SCC3=Nc4ccccc4CN32)cc1", "note": "(stereo not given)", "values": [{"measurement": "GI50", "setting": "[1]", "result": "23.4 µM (inactive)"}, {"measurement": "GI50", "setting": "[2]", "result": "75.2 µM (inactive)"}, {"measurement": "GI50", "setting": "[3]", "result": "94.6 µM (inactive)"}, {"measurement": "GI50", "setting": "[4]", "result": "> 100 µM (inactive)"}, {"measurement": "GI50", "setting": "[5]", "result": "25.9 µM (inactive)"}, {"measurement": "GI50", "setting": "[6]", "result": "39.8 µM (inactive)"}, {"measurement": "GI50", "setting": "[7]", "result": "16.6 µM (inactive)"}, {"measurement": "GI50", "setting": "[19]", "result": "78.5 µM (inactive)"}, {"measurement": "GI50", "setting": "[20]", "result": "54 µM (inactive)"}, {"measurement": "GI50", "setting": "[8]", "result": "60.1 µM (inactive)"}, {"measurement": "GI50", "setting": "[9]", "result": "31.4 µM (inactive)"}, {"measurement": "GI50", "setting": "[10]", "result": "36 µM (inactive)"}, {"measurement": "GI50", "setting": "[11]", "result": "50.8 µM (inactive)"}, {"measurement": "GI50", "setting": "[12]", "result": "> 100 µM (inactive)"}, {"measurement": "GI50", "setting": "[13]", "result": "19.4 µM (inactive)"}, {"measurement": "GI50", "setting": "[14]", "result": "28.4 µM (inactive)"}, {"measurement": "GI50", "setting": "[16]", "result": "87.7 µM (inactive)"}, {"measurement": "GI50", "setting": "[17]", "result": "24.9 µM (inactive)"}, {"measurement": "GI50", "setting": "[18]", "result": "0.78 µM (active)"}]}, {"smiles": "c1ccc(CCN2CCOCC2)nc1", "values": [{"measurement": "GI50", "setting": "[1]", "result": "> 100 µM (inactive)"}, {"measurement": "GI50", "setting": "[2]", "result": "> 100 µM (inactive)"}, {"measurement": "GI50", "setting": "[3]", "result": "> 100 µM (inactive)"}, {"measurement": "GI50", "setting": "[4]", "result": "> 100 µM (inactive)"}, {"measurement": "GI50", "setting": "[5]", "result": "> 100 µM (inactive)"}, {"measurement": "GI50", "setting": "[6]", "result": "> 100 µM (inactive)"}, {"measurement": "GI50", "setting": "[7]", "result": "> 100 µM (inactive)"}, {"measurement": "GI50", "setting": "[19]", "result": "> 100 µM (inactive)"}, {"measurement": "GI50", "setting": "[20]", "result": "> 100 µM (inactive)"}, {"measurement": "GI50", "setting": "[8]", "result": "> 100 µM (inactive)"}, {"measurement": "GI50", "setting": "[9]", "result": "> 100 µM (inactive)"}, {"measurement": "GI50", "setting": "[10]", "result": "> 100 µM (inactive)"}, {"measurement": "GI50", "setting": "[11]", "result": "> 100 µM (inactive)"}, {"measurement": "GI50", "setting": "[12]", "result": "> 100 µM (inactive)"}, {"measurement": "GI50", "setting": "[13]", "result": "> 100 µM (inactive)"}, {"measurement": "GI50", "setting": "[15]", "result": "> 100 µM (inactive)"}, {"measurement": "GI50", "setting": "[16]", "result": "> 100 µM (inactive)"}, {"measurement": "GI50", "setting": "[17]", "result": "> 100 µM (inactive)"}, {"measurement": "GI50", "setting": "[18]", "result": "> 100 µM (inactive)"}]}, {"smiles": "O=[N+]([O-])C1CC/C(=N/O)c2nonc21", "note": "(stereo not given)", "values": [{"measurement": "GI50", "setting": "[2]", "result": "> 10 µM (inactive)"}, {"measurement": "GI50", "setting": "[3]", "result": "> 10 µM (inactive)"}, {"measurement": "GI50", "setting": "[4]", "result": "> 10 µM (inactive)"}, {"measurement": "GI50", "setting": "[5]", "result": "> 10 µM (inactive)"}, {"measurement": "GI50", "setting": "[6]", "result": "> 10 µM (inactive)"}, {"measurement": "GI50", "setting": "[7]", "result": "> 10 µM (inactive)"}, {"measurement": "GI50", "setting": "[19]", "result": "> 10 µM (inactive)"}, {"measurement": "GI50", "setting": "[20]", "result": "> 10 µM (inactive)"}, {"measurement": "GI50", "setting": "[8]", "result": "> 10 µM (inactive)"}, {"measurement": "GI50", "setting": "[9]", "result": "> 10 µM (inactive)"}, {"measurement": "GI50", "setting": "[11]", "result": "> 10 µM (inactive)"}, {"measurement": "GI50", "setting": "[12]", "result": "> 10 µM (inactive)"}, {"measurement": "GI50", "setting": "[13]", "result": "> 10 µM (inactive)"}, {"measurement": "GI50", "setting": "[14]", "result": "> 10 µM (inactive)"}, {"measurement": "GI50", "setting": "[16]", "result": "> 10 µM (inactive)"}, {"measurement": "GI50", "setting": "[17]", "result": "> 10 µM (inactive)"}, {"measurement": "GI50", "setting": "[18]", "result": "> 10 µM (inactive)"}]}, {"smiles": "CO[C@H]1O[C@@H]2OC3(C)CCC4[C@H](C)CCC([C@H]1C)[C@]42OO3", "note": "(stereo not given in full)", "values": [{"measurement": "GI50", "setting": "[1]", "result": "> 100 µM (inactive)"}, {"measurement": "GI50", "setting": "[3]", "result": "> 100 µM (inactive)"}, {"measurement": "GI50", "setting": "[4]", "result": "> 100 µM (inactive)"}, {"measurement": "GI50", "setting": "[5]", "result": "76 µM (inactive)"}, {"measurement": "GI50", "setting": "[6]", "result": "12.1 µM (inactive)"}, {"measurement": "GI50", "setting": "[7]", "result": "> 100 µM (inactive)"}, {"measurement": "GI50", "setting": "[19]", "result": "> 100 µM (inactive)"}, {"measurement": "GI50", "setting": "[20]", "result": "> 100 µM (inactive)"}, {"measurement": "GI50", "setting": "[8]", "result": "> 100 µM (inactive)"}, {"measurement": "GI50", "setting": "[9]", "result": "56.2 µM (inactive)"}, {"measurement": "GI50", "setting": "[10]", "result": "> 100 µM (inactive)"}, {"measurement": "GI50", "setting": "[11]", "result": "> 100 µM (inactive)"}, {"measurement": "GI50", "setting": "[12]", "result": "> 100 µM (inactive)"}, {"measurement": "GI50", "setting": "[13]", "result": "28.2 µM (inactive)"}, {"measurement": "GI50", "setting": "[14]", "result": "> 100 µM (inactive)"}, {"measurement": "GI50", "setting": "[15]", "result": "> 100 µM (inactive)"}, {"measurement": "GI50", "setting": "[16]", "result": "> 100 µM (inactive)"}, {"measurement": "GI50", "setting": "[17]", "result": "> 100 µM (inactive)"}, {"measurement": "GI50", "setting": "[18]", "result": "78.9 µM (inactive)"}]}]}
